Test system: invadopodia formation
Assay: Invadopodia formation with ROCK inhibitor
Format: cell-based
Conditions: ROCK inhibition, Supplementary Figure S6C

For `O=S(=O)(c1cccc2cnccc12)N1CCCNCC1` [Fasudil], which “effect on invadopodia formation” value is on record?
Its value is “affected neither”.

Source: article PMC7969469 (Cancer research, 2021)
